Test system: 945468-187-T-J3-PDC spheroids with HUVEC/MSC, viability
Assay: Anticancer human tumor 945468-187-T-J3-PDC patient-derived rectal carcinoma cell line growth inhibition [PI3K]
Details: for IC50: curve of first compound; for viability, T/C: stronger effect = lower value
Outline: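 Complex 3D spheroids (cancer cells + endothelial HUVEC + mesenchymal stem cells); drug pairs of targeted agent x inavolisib/alpelisib/duvelisib/copanlisib; half-log series from ~Cmax, max 10 microM if Cmax unknown; endpoint viability.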

[1] = second compound 0.00316 µM, first compound 0.0316 µM
[2] = second compound 0.00316 µM, first compound 0.1 µM
[3] = second compound 0.00316 µM, first compound 0.316 µM
[4] = second compound 0.00316 µM, first compound 1 µM
[5] = second compound 0.00316 µM, first compound 3.16 µM
[6] = second compound 0.00316 µM, first compound 10 µM
[7] = second compound 0.01 µM, first compound 0.0316 µM
[8] = second compound 0.01 µM, first compound 0.1 µM
[9] = second compound 0.01 µM, first compound 0.316 µM
[10] = second compound 0.01 µM, first compound 1 µM
[11] = second compound 0.01 µM, first compound 3.16 µM
[12] = second compound 0.01 µM, first compound 10 µM
[13] = second compound 0.0316 µM, first compound 0.0316 µM
[14] = second compound 0.0316 µM, first compound 0.1 µM
[15] = second compound 0.0316 µM, first compound 0.316 µM
[16] = second compound 0.0316 µM, first compound 1 µM
[17] = second compound 0.0316 µM, first compound 3.16 µM
[18] = second compound 0.0316 µM, first compound 10 µM
[19] = second compound 0.1 µM, first compound 0.0316 µM
[20] = second compound 0.1 µM, first compound 0.1 µM
[21] = second compound 0.1 µM, first compound 0.316 µM
[22] = second compound 0.1 µM, first compound 1 µM
[23] = second compound 0.1 µM, first compound 3.16 µM
[24] = second compound 0.1 µM, first compound 10 µM
[25] = second compound 0.316 µM, first compound 0.0316 µM
[26] = second compound 0.316 µM, first compound 0.1 µM
[27] = second compound 0.316 µM, first compound 0.316 µM
[28] = second compound 0.316 µM, first compound 1 µM
[29] = second compound 0.316 µM, first compound 3.16 µM
[30] = second compound 0.316 µM, first compound 10 µM
[31] = second compound 1 µM, first compound 0.0316 µM
[32] = second compound 1 µM, first compound 0.1 µM
[33] = second compound 1 µM, first compound 0.316 µM
[34] = second compound 1 µM, first compound 1 µM
[35] = second compound 1 µM, first compound 3.16 µM
[36] = second compound 1 µM, first compound 10 µM
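Further: spheroids exposed to agents for 7 days before viability read.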
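Wherever viability, T/C is given: 100% = DMSO vehicle control viability.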

## C#Cc1c(F)ccc2cc(O)cc(-c3ncc4c(N5CC6CCC(C5)N6)nc(OCC56CCCN5CC(F)C6)nc4c3F)c12 (stereo not drawn) + CC(Nc1ccc2c(c1)OCCn1cc(N3C(=O)OCC3C(F)F)nc1-2)C(N)=O
Second compound 0.00316 µM
  IC50: > 10 µM
Second compound 0.01 µM
  IC50: > 10 µM
Second compound 0.0316 µM
  IC50: > 10 µM
Second compound 0.1 µM
  IC50: > 10 µM
Second compound 0.316 µM
  IC50: > 10 µM
Second compound 1 µM
  IC50: 2.76 µM
[1]
  viability, T/C: 94%
[2]
  viability, T/C: 103%
[3]
  viability, T/C: 94%
[4]
  viability, T/C: 114%
[5]
  viability, T/C: 120%
[6]
  viability, T/C: 113%
[7]
  viability, T/C: 94.1%
[8]
  viability, T/C: 100%
[9]
  viability, T/C: 94.6%
[10]
  viability, T/C: 115%
[11]
  viability, T/C: 138%
[12]
  viability, T/C: 102%
[13]
  viability, T/C: 100%
[14]
  viability, T/C: 104%
[15]
  viability, T/C: 99.8%
[16]
  viability, T/C: 118%
[17]
  viability, T/C: 115%
[18]
  viability, T/C: 105%
[19]
  viability, T/C: 122%
[20]
  viability, T/C: 112%
[21]
  viability, T/C: 97%
[22]
  viability, T/C: 117%
[23]
  viability, T/C: 115%
[24]
  viability, T/C: 103%
[25]
  viability, T/C: 111%
[26]
  viability, T/C: 99.6%
[27]
  viability, T/C: 91.3%
[28]
  viability, T/C: 106%
[29]
  viability, T/C: 91%
[30]
  viability, T/C: 56.1%
[31]
  viability, T/C: 76.2%
[32]
  viability, T/C: 73.2%
[33]
  viability, T/C: 64.9%
[34]
  viability, T/C: 70.2%
[35]
  viability, T/C: 47.3%
[36]
  viability, T/C: 29%

## CC(Cn1ccc(-c2ccc(C#N)c(Cl)c2)n1)NC(=O)c1cc(C(C)O)[nH]n1 (stereo not drawn) + CC(Nc1ccc2c(c1)OCCn1cc(N3C(=O)OCC3C(F)F)nc1-2)C(N)=O
Second compound 0.00316 µM
  IC50: > 10 µM
Second compound 0.01 µM
  IC50: > 10 µM
Second compound 0.0316 µM
  IC50: > 10 µM
Second compound 0.1 µM
  IC50: > 10 µM
Second compound 0.316 µM
  IC50: > 10 µM
Second compound 1 µM
  IC50: > 10 µM
[1]
  viability, T/C: 95.2%
[2]
  viability, T/C: 99.4%
[3]
  viability, T/C: 106%
[4]
  viability, T/C: 112%
[5]
  viability, T/C: 114%
[6]
  viability, T/C: 99.6%
[7]
  viability, T/C: 111%
[8]
  viability, T/C: 104%
[9]
  viability, T/C: 93.6%
[10]
  viability, T/C: 111%
[11]
  viability, T/C: 114%
[12]
  viability, T/C: 106%
[13]
  viability, T/C: 115%
[14]
  viability, T/C: 107%
[15]
  viability, T/C: 101%
[16]
  viability, T/C: 111%
[17]
  viability, T/C: 109%
[18]
  viability, T/C: 107%
[19]
  viability, T/C: 109%
[20]
  viability, T/C: 115%
[21]
  viability, T/C: 115%
[22]
  viability, T/C: 114%
[23]
  viability, T/C: 107%
[24]
  viability, T/C: 99.1%
[25]
  viability, T/C: 107%
[26]
  viability, T/C: 107%
[27]
  viability, T/C: 96.7%
[28]
  viability, T/C: 115%
[29]
  viability, T/C: 108%
[30]
  viability, T/C: 102%
[31]
  viability, T/C: 80.5%
[32]
  viability, T/C: 68.6%
[33]
  viability, T/C: 75.4%
[34]
  viability, T/C: 71.2%
[35]
  viability, T/C: 74.8%
[36]
  viability, T/C: 71.1%

## CC1(C)CCC(Nc2ncc(C(F)(F)F)c(-c3c[nH]c4c(P(C)(C)=O)c(C#N)ccc34)n2)CN1 (stereo not drawn) + CC(Nc1ccc2c(c1)OCCn1cc(N3C(=O)OCC3C(F)F)nc1-2)C(N)=O
Second compound 0.00316 µM
  IC50: 5.65 µM
Second compound 0.01 µM
  IC50: 5.69 µM
Second compound 0.0316 µM
  IC50: 5.24 µM
Second compound 0.1 µM
  IC50: 5.3 µM
Second compound 0.316 µM
  IC50: 3.77 µM
Second compound 1 µM
  IC50: 1.99 µM
[1]
  viability, T/C: 83.5%
[2]
  viability, T/C: 85.8%
[3]
  viability, T/C: 69.1%
[4]
  viability, T/C: 85.8%
[5]
  viability, T/C: 86.1%
[6]
  viability, T/C: 18.5%
[7]
  viability, T/C: 83.8%
[8]
  viability, T/C: 83.5%
[9]
  viability, T/C: 72.3%
[10]
  viability, T/C: 94.7%
[11]
  viability, T/C: 96.6%
[12]
  viability, T/C: 15.1%
[13]
  viability, T/C: 82.9%
[14]
  viability, T/C: 77.4%
[15]
  viability, T/C: 71.2%
[16]
  viability, T/C: 79.8%
[17]
  viability, T/C: 87.3%
[18]
  viability, T/C: 11.8%
[19]
  viability, T/C: 86.1%
[20]
  viability, T/C: 88.6%
[21]
  viability, T/C: 70.8%
[22]
  viability, T/C: 77.6%
[23]
  viability, T/C: 82%
[24]
  viability, T/C: 11.9%
[25]
  viability, T/C: 82.4%
[26]
  viability, T/C: 79.2%
[27]
  viability, T/C: 80.7%
[28]
  viability, T/C: 61.4%
[29]
  viability, T/C: 63.2%
[30]
  viability, T/C: 8.03%
[31]
  viability, T/C: 80.7%
[32]
  viability, T/C: 62.4%
[33]
  viability, T/C: 62%
[34]
  viability, T/C: 51.6%
[35]
  viability, T/C: 52.2%
[36]
  viability, T/C: 4.39%

## Cn1nccc1Nc1nccc(-c2ccn(C(CO)c3ccc(Cl)c(F)c3)c(=O)c2)n1 (stereo not drawn) + CC(Nc1ccc2c(c1)OCCn1cc(N3C(=O)OCC3C(F)F)nc1-2)C(N)=O
Second compound 0.00316 µM
  IC50: > 10 µM
Second compound 0.01 µM
  IC50: > 10 µM
Second compound 0.0316 µM
  IC50: > 10 µM
Second compound 0.1 µM
  IC50: > 10 µM
Second compound 0.316 µM
  IC50: > 10 µM
Second compound 1 µM
  IC50: > 10 µM
[1]
  viability, T/C: 93.2%
[2]
  viability, T/C: 108%
[3]
  viability, T/C: 103%
[4]
  viability, T/C: 120%
[5]
  viability, T/C: 143%
[6]
  viability, T/C: 145%
[7]
  viability, T/C: 103%
[8]
  viability, T/C: 101%
[9]
  viability, T/C: 97.5%
[10]
  viability, T/C: 115%
[11]
  viability, T/C: 124%
[12]
  viability, T/C: 131%
[13]
  viability, T/C: 106%
[14]
  viability, T/C: 99.4%
[15]
  viability, T/C: 106%
[16]
  viability, T/C: 122%
[17]
  viability, T/C: 131%
[18]
  viability, T/C: 123%
[19]
  viability, T/C: 102%
[20]
  viability, T/C: 108%
[21]
  viability, T/C: 115%
[22]
  viability, T/C: 124%
[23]
  viability, T/C: 115%
[24]
  viability, T/C: 116%
[25]
  viability, T/C: 97.3%
[26]
  viability, T/C: 91.7%
[27]
  viability, T/C: 97.2%
[28]
  viability, T/C: 89.3%
[29]
  viability, T/C: 78.3%
[30]
  viability, T/C: 80.1%
[31]
  viability, T/C: 78.8%
[32]
  viability, T/C: 79.8%
[33]
  viability, T/C: 65%
[34]
  viability, T/C: 72%
[35]
  viability, T/C: 60.7%
[36]
  viability, T/C: 62.7%
